Reference: patent US20260265238A1, “COMPOUNDS AND PHARMACEUTICAL COMPOSITIONS THAT DEGRADE SWI/SNF-RELATED MATRIX-ASSOCIATED ACTIN-DEPENDENT REGULATOR OF CHROMATIN SUBFAMILY A” (Plexium, Inc., priority 2023, published 2026)

Experiments:
[1] = molecular target: T1, SMARCA4-HiBiT HeLa cells (protein which is expressed from the SMARCA4 gene) (Homo sapiens, UniProt P51532); assay: SMARCA4 degradation assay (HiBiT-fusion HeLa cell line, 24 h, luminescence); format: cell-based
T1 construct: protein which is expressed from the SMARCA2 and SMARCA4 genes; host or cells: HeLa (SMARCA4-HiBiT engineered line)
T1 sequence (P51532 whole entry, the tested form may be a part): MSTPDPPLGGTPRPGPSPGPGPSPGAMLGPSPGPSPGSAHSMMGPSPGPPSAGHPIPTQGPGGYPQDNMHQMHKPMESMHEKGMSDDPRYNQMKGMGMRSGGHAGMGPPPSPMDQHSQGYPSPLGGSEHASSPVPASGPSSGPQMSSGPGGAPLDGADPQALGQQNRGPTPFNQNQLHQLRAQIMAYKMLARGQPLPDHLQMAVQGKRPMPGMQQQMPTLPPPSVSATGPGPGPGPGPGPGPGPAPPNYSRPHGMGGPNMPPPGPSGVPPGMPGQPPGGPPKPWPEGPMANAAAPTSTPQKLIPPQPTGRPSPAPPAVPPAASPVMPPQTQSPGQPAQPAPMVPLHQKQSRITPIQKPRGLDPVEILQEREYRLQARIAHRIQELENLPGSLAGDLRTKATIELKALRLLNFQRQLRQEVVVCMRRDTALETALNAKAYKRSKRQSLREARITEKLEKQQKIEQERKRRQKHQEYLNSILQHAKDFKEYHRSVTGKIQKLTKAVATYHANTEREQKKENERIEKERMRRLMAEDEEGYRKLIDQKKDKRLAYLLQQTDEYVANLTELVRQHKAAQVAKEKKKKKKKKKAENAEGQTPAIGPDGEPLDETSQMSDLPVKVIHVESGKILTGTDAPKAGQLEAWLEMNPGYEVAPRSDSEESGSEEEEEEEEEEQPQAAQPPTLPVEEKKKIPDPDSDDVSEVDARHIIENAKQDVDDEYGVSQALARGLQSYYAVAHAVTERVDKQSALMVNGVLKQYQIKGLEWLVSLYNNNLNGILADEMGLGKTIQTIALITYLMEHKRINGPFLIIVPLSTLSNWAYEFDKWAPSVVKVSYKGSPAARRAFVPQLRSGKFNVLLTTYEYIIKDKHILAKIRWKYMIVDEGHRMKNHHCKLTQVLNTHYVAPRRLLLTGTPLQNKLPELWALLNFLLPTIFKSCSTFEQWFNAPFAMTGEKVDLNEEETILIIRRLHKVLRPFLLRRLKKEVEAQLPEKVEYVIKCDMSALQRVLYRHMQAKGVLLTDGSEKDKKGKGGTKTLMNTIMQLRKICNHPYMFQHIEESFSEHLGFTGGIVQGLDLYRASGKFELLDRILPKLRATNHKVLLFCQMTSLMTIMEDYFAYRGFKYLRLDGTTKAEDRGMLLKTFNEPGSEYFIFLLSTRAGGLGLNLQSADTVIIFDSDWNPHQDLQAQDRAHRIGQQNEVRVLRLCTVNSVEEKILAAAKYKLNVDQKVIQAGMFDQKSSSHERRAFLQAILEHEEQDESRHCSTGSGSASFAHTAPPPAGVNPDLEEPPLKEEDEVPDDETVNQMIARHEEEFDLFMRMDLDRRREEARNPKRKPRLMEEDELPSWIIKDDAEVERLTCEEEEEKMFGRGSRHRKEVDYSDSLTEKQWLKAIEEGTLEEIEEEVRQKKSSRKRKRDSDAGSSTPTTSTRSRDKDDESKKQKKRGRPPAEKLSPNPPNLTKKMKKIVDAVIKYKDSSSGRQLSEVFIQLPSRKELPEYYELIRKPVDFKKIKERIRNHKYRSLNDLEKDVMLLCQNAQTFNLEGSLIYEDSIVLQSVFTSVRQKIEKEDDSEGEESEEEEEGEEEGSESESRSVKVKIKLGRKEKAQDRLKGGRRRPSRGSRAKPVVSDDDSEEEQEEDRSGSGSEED
Method in brief: (§1)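 HiBiT-fusion HeLa lines, 8,000 cells/well, overnight attachment; cpd 10-pt series (typically 10 μM–300 pM), 24 h, 37° C. Lysis with LgBiT + HiBiT substrate, 10 min shaking at RT, luminescence read. DC50 from dose-response fit; % degradation also scored at 1 μM.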

[2] = molecular target: T2, SMARCA2-HiBiT HeLa cells (protein which is expressed from the SMARCA2 gene) (Homo sapiens, UniProt P51531); assay: SMARCA2 degradation assay (HiBiT-fusion HeLa cell line, 24 h, luminescence); format: cell-based
T2 construct: protein which is expressed from the SMARCA2 and SMARCA4 genes; host or cells: HeLa (SMARCA2-HiBiT engineered line)
T2 sequence (P51531 whole entry, the tested form may be a part): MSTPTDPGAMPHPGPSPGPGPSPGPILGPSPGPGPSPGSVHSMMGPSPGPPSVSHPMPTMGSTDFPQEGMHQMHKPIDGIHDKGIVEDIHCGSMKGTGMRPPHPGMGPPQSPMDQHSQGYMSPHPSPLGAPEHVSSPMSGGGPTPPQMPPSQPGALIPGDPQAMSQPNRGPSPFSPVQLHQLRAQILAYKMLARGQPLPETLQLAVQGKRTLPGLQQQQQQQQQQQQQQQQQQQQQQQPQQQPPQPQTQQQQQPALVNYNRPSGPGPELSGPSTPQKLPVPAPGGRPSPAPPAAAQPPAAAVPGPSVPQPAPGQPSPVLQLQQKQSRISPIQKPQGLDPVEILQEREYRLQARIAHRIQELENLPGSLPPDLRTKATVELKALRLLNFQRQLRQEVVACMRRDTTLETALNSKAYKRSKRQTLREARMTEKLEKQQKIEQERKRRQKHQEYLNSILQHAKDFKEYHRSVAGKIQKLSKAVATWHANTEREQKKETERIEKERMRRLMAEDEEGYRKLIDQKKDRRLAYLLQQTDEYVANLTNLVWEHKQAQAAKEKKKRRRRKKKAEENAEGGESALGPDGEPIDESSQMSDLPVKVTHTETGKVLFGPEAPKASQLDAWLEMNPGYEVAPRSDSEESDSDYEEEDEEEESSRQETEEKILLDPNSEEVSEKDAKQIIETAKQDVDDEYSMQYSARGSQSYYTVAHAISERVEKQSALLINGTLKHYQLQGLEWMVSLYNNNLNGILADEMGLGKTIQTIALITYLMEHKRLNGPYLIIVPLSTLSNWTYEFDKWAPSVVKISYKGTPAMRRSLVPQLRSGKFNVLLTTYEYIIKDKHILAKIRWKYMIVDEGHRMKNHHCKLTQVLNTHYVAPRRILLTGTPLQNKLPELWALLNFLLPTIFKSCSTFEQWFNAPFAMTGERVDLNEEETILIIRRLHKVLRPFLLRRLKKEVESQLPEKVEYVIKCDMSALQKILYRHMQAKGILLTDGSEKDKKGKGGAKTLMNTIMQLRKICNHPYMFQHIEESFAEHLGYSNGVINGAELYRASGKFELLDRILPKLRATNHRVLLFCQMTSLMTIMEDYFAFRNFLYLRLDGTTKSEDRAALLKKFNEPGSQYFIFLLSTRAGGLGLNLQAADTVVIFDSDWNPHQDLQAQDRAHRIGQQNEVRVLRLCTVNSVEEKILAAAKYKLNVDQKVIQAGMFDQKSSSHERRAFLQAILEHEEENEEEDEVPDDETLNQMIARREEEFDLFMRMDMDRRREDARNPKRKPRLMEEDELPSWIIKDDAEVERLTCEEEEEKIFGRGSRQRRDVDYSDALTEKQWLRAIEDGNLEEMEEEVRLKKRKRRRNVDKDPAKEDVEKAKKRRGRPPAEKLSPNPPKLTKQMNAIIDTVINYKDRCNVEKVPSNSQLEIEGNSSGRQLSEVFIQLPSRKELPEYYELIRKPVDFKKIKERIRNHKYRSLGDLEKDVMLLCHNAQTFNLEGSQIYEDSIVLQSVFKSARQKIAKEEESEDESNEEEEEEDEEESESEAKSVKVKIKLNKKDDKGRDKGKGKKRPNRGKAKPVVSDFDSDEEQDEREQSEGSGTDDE
Method in brief: as §1

| SMILES | DC50 [1] | inhibition at 1 µM ([1]; @ 1 μM) | DC50 [2] | SMARCA2 % Degradation @ 1 μM ([2]; @ 1 μM) | SMARCA2 % Degradation @ 1 μM ([2]; 1 μM) | inhibition at 1 µM ([1]; 1 μM) |
| --- | --- | --- | --- | --- | --- | --- |
| Nc1nnc(-c2ccccc2O)cc1N1CCN(c2ccnc(C#CCCNC(=O)c3cc4ncccn4n3)n2)CC1 [Compound P-94, N-(4-(4-(4-(3-amino-6-(2-hydroxyphenyl)pyridazin-4-yl)piperazin-1-yl)pyrimidin-2-yl)but-3-yn-1-yl)pyrazolo[1,5-a]pyrimidine-2-carboxamide] | 0.05 to 0.5 µM | < 30% | 0.05 to 0.5 µM | ++ (++=30-70%) | – | – |
| C[C@@H]1CCN(c2cc(-c3ccccc3O)nnc2N)CCN1c1ccnc(C#CCN2[C@H](C)COC[C@@H]2C)n1 [Compound P-260, o-{5-[(R)-4-(2-{3-[(3R,5S)-3,5-dimethyl-4-morpholiny1]-1-propynyl}-4-pyrimidinyl)-5-methyl-1,4-diazepan-1-yl]-6-amino-3-pyridaziny1}phenol] | 0.05 to 0.5 µM | < 30% | < 0.05 µM | ++ (++=30-70%) | – | – |
| C[C@@H]1CCN(c2cc(-c3ccccc3O)nnc2N)CCN1c1ccnc(C#CCn2ccnc2)n1 [Compound P-298, 0-{5-[(R)-4-{2-[3-(1-imidazolyl)-1-propynyl]-4-pyrimidinyl}-5-mcthyl-1,4-diazepan-1-yl]-6-amino-3-pyridazinyl}phenol] | 0.05 to 0.5 µM | 30 to 70% | 0.05 to 0.5 µM | +++ (+++=>70%) | – | – |
| COCc1cc(N2CCCN(c3cc(-c4ccccc4O)nnc3N)CC2)nc(C#CCNC(=O)c2cc3ncccn3n2)n1 [Compound P-127, N-(3-(4-(4-(3-amino-6-(2-hydroxyphenyl)pyridazin-4-yl)-1,4-diazcpan-1-yl)-6-(methoxymethyl)pyrimidin-2-yl)prop-2-yn-1-yl)pyrazolo[1,5-a]pyrimidine-2-carboxamide] | 0.05 to 0.5 µM | > 70% | 0.05 to 0.5 µM | ++ (++=30-70%) | – | – |
| C[C@@H]1CCN(c2cc(-c3ccccc3O)nnc2N)CCN1c1ccc(C#N)c(C#CCN2CC(F)(F)[C@H]2C)n1 [Compound P-413, 6-{(R)-4-[3-amino-6-(o-hydroxyphenyl)-4-pyridazinyl]-7-methyl-1,4-diazepan-1-y1}-2-{3-[(R)-3,3-difluoro-2-methyl-1-azetidinyl]-1-propynyl} nicotinonitrile] | > 5 µM | – | 0.05 to 0.5 µM | – | ++ (++=30-70%) | – |
| C[C@H]1CN(c2ccnc(C#CCn3cccn3)n2)CCN1c1cc(-c2ccccc2O)nnc1N [Compound P-329, 0-{5-[(S)-2-methyl-4-{2-[3-(1-pyrazolyl)-1-propynyl]-4-pyrimidinyl}-1-piperazinyl]-6-amino-3-pyridazinyl} phenol] | 0.05 to 0.5 µM | < 30% | 0.05 to 0.5 µM | ++ (++=30-70%) | – | – |
| C[C@H](O)C#Cc1nccc(N2CCCN(c3cc(-c4ccccc4O)nnc3N)CC2)n1 [Compound P-321, 0-[5-(4-{2-[(S)-3-hydroxy-1-butynyl]-4-pyrimidinyl}-1,4-diazepan-1-yl)-6-amino-3-pyridazinyl]phenol] | 0.05 to 0.5 µM | 30 to 70% | 0.05 to 0.5 µM | ++ (++=30-70%) | – | – |
| Nc1nnc(-c2ccccc2O)cc1N1CCN(c2ccnc(C#CCNC(=O)c3cc4ccccc4[nH]3)n2)CC1 [Compound P-73, N-(3-(4-(4-(3-amino-6-(2-hydroxyphenyl)pyridazin-4-yl)piperazin-1-yl)pyrimidin-2-yl)prop-2-yn-1-yl)-1H-indole-2-carboxamide] | 0.05 to 0.5 µM | 30 to 70% | 0.05 to 0.5 µM | ++ (++=30-70%) | – | – |
| COCc1cc(N2CCCN(c3cc(-c4ccccc4O)nnc3N)CC2)nc(C#CCNC(=O)c2nn(C)c(C)c2C)n1 [Compound P-126, N-(3-(4-(4-(3-amino-6-(2-hydroxyphenyl)pyridazin-4-yl)-1,4-diazepan-1-yl)-6-(methoxymethyl)pyrimidin-2-yl)prop-2-yn-1-yl)-1,4,5-trimethyl-1H-pyrazole-3-carboxamide] | 0.05 to 0.5 µM | 30 to 70% | 0.05 to 0.5 µM | ++ (++=30-70%) | – | – |
| CC(C)(C)OC(=O)NCC#Cc1cccc(N2CCCN(c3cc(-c4ccccc4O)nnc3N)CC2)n1 [Compound P-432, 3-(6-{4-[3-amino-6-(o-hydroxyphenyl)-4-pyridaziny1]-1,4-diazepan-1-yl}-2-pyridyl)-2-propynyl 2-methyl-2-propanecarbamate] | > 5 µM | – | 0.5 to 5 µM | – | – | – |
| C[C@@H]1CCN(c2cc(-c3ccccc3O)nnc2N)CCN1c1ccc(C#N)c(C#CCN2CCC(F)(F)CC2)n1 [Compound P-416, 6-{(R)-4-[3-amino-6-(o-hydroxyphenyl)-4-pyridazinyl]-7-methyl-1,4-diazepan-1-yl}-2-[3-(4,4-difluoro-1-piperidyl)-1-propynyl]nicotinonitrile] | 0.05 to 0.5 µM | – | 0.05 to 0.5 µM | – | +++ (+++=>70%) | > 70% |
| Nc1nnc(-c2ccccc2O)cc1N1CCCN(c2ccnc(C#CCn3ccnc3)n2)CC1 [Compound P-145, 2-(5-(4-(2-(3-(1H-imidazol-1-yl)prop-1-yn-1-yl)pyrimidin-4-yl)-1,4-diazepan-1-yl)-6-aminopyridazin-3-yl)phenol] | 0.05 to 0.5 µM | 30 to 70% | 0.05 to 0.5 µM | +++ (+++=>70%) | – | – |
| CC(=O)N(C)C/C=C/c1nccc(N2CCN(c3cc(-c4ccccc4O)nnc3N)CC[C@H]2C)n1 [Compound P-153, N-[3-(4-{(R)-4-[3-amino-6-(o-hydroxyphenyl)-4-pyridazinyl]-7-methyl-1,4-diazepan-1-yl}-2-pyrimidinyl)-2-propenyl]-N-methylacetamide] | 0.05 to 0.5 µM | 30 to 70% | 0.05 to 0.5 µM | ++ (++=30-70%) | – | – |
| C[C@@H]1CCN(c2cc(-c3ccccc3O)nnc2N)CCN1c1ccnc(C#CCN2CC(F)C2)n1 [Compound P-230, o-{5-[(R)-4-{2-[3-(3-fluoro-1-azetidinyl)-1-propynyl]-4-pyrimidinyl}-5-methyl-1,4-diazepan-1-y1]-6-amino-3-pyridaziny1}phenol] | 0.05 to 0.5 µM | < 30% | 0.05 to 0.5 µM | ++ (++=30-70%) | – | – |
| Nc1nnc(-c2ccccc2O)cc1N1CC2CCC(C1)N2c1ccnc(C#CCNC(=O)c2cc3ncccn3n2)n1 [Compound P-119, N-(3-(4-(3-(3-amino-6-(2-hydroxyphenyl)pyridazin-4-yl)-3,8-diazabicyclo[3.2.1]octan-8-yl)pyrimidin-2-yl)prop-2-yn-1-yl)pyrazolo[1,5-a]pyrimidine-2-carboxamide] | 0.5 to 5 µM | < 30% | > 5 µM | + (+=<30%) | – | – |
| Nc1nnc(-c2ccccc2O)cc1N1CC2CCC(C1)N2c1ccnc(C#CCN2CC3CC2C3)n1 [Compound P-188, o-{6-amino-5-[8-(2-{3-(2-azabicyclo[2.1.1]hex-2-yl)-1-propynyl}-4-pyrimidinyl)-3,8-diazabicyclo[3.2.1]oct-3-yl]-3-pyridazinyl}phenol] | < 0.05 µM | 30 to 70% | < 0.05 µM | +++ (+++=>70%) | – | – |
| Nc1nnc(-c2ccccc2O)cc1N1CCCN(c2ccnc(C#CCN3CCn4nccc4C3)n2)CC1 [Compound P-146, 2-(6-amino-5-(4-(2-(3-(6,7-dihydropyrazolo[1,5-a]pyrazin-5(4H)-yl)prop-1-yn-1-yl)pyrimidin-4-yl)-1,4-diazepan-1-yl)pyridazin-3-yl)phenol] | 0.05 to 0.5 µM | 30 to 70% | 0.05 to 0.5 µM | +++ (+++=>70%) | – | – |
| CC1CCC(C)N1CC#Cc1nccc(N2CCN(c3cc(-c4ccccc4O)nnc3N)CC[C@H]2C)n1 (stereo partly drawn) [Compound P-246, o-{5-[(R)-4-{2-[3-(2,5-dimethyl-1-pyrrolidinyl)-1-propynyl]-4-pyrimidinyl}-5-methyl-1,4-diazepan-1-yl]-6-amino-3-pyridazinyl}phenol] | < 0.05 µM | 30 to 70% | < 0.05 µM | ++ (++=30-70%) | – | – |
| CC1CC(C)N1CC#Cc1cc(N2CCN(c3cc(-c4ccccc4O)nnc3N)CC[C@H]2C)ccn1 (stereo partly drawn) [Compound P-418, 0-{5-[(R)-4-{2-[3-(2,4-dimethyl-1-azetidinyl)-1-propynyl]-4-pyridy1}-5-methyl-1,4-diazepan-1-yl]-6-amino-3-pyridazinyl}phenol] | < 0.05 µM | – | < 0.05 µM | – | +++ (+++=>70%) | 30 to 70% |
| C[C@@H]1CCN(c2cc(-c3ccccc3O)nnc2N)CCN1c1ccnc(C#CCN(C)C)c1 [Compound P-427, 0-{5-[(R)-4-{2-[3-(dimethylamino)-1-propynyl]-4-pyridyl}-5-methyl-1,4-diazepan-1-yl]-6-amino-3-pyridazinyl}phenol] | < 0.05 µM | – | < 0.05 µM | – | +++ (+++=>70%) | 30 to 70% |
| CN(CC#Cc1nccc(N2CCCN(c3cc(-c4ccccc4O)nnc3N)CC2)n1)c1nc2ccccc2o1 [Compound P-107, 2-(6-amino-5-(4-(2-(3-(benzo[d]oxazol-2-yl(methyl)amino)prop-1-yn-1-yl)pyrimidin-4-yl)-1,4-diazepan-1-yl)pyridazin-3-yl)phenol] | < 0.05 µM | > 70% | < 0.05 µM | +++ (+++=>70%) | – | – |
